According to ChEMBL document CHEMBL3991601, “The target landscape of clinical kinase drugs” (Science, 2017):
Active and inactive are the calls of the source.

Tests used:
[1] = target: Casein kinase I isoform delta (Homo sapiens, UniProt P48730)
[2] = target: ATP-dependent RNA helicase DDX3X (Homo sapiens, UniProt O00571)
[3] = target: Glycogen synthase kinase-3 beta (Homo sapiens, UniProt P49841)
[4] = target: Inosine-5'-monophosphate dehydrogenase 2 (Homo sapiens, UniProt P12268)
[5] = target: Interleukin-1 receptor-associated kinase 1 (Homo sapiens, UniProt P51617)
[6] = target: Mitogen-activated protein kinase 9 (Homo sapiens, UniProt P45984)
[7] = target: S-adenosylmethionine synthase isoform type-2 (Homo sapiens, UniProt P31153)
[8] = target: Myosin light chain kinase, smooth muscle (Homo sapiens, UniProt Q15746)
[9] = target: T1, ATP-dependent 6-phosphofructokinase, platelet type (Homo sapiens, UniProt Q01813)
T1 sequence (Q01813 whole entry): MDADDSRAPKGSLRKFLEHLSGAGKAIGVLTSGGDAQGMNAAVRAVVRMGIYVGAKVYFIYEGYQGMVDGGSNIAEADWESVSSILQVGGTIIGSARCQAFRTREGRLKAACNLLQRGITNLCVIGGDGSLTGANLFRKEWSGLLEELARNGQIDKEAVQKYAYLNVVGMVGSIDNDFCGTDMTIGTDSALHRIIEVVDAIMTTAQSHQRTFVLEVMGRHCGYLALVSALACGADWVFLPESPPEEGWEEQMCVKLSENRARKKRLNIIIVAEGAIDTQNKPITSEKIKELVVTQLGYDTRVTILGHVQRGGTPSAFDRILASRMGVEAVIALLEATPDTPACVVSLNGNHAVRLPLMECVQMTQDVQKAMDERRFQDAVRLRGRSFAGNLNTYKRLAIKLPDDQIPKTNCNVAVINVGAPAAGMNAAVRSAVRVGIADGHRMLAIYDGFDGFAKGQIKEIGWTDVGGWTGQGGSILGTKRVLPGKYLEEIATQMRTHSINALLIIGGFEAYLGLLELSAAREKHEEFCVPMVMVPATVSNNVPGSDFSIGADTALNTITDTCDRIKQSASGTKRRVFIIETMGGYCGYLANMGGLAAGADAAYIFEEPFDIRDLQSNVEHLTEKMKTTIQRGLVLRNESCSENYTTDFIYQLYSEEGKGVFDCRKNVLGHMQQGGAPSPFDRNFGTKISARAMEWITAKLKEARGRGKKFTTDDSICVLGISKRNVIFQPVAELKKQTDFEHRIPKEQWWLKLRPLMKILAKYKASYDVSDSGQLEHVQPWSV

[10] = target: Ras-related protein Rab-6A (Homo sapiens, UniProt P20340)
[11] = target: Serine/threonine-protein kinase SIK2 (Homo sapiens, UniProt Q9H0K1)
[12] = target: T2, Structural maintenance of chromosomes protein 1A (Homo sapiens, UniProt Q14683)
T2 sequence (Q14683 whole entry): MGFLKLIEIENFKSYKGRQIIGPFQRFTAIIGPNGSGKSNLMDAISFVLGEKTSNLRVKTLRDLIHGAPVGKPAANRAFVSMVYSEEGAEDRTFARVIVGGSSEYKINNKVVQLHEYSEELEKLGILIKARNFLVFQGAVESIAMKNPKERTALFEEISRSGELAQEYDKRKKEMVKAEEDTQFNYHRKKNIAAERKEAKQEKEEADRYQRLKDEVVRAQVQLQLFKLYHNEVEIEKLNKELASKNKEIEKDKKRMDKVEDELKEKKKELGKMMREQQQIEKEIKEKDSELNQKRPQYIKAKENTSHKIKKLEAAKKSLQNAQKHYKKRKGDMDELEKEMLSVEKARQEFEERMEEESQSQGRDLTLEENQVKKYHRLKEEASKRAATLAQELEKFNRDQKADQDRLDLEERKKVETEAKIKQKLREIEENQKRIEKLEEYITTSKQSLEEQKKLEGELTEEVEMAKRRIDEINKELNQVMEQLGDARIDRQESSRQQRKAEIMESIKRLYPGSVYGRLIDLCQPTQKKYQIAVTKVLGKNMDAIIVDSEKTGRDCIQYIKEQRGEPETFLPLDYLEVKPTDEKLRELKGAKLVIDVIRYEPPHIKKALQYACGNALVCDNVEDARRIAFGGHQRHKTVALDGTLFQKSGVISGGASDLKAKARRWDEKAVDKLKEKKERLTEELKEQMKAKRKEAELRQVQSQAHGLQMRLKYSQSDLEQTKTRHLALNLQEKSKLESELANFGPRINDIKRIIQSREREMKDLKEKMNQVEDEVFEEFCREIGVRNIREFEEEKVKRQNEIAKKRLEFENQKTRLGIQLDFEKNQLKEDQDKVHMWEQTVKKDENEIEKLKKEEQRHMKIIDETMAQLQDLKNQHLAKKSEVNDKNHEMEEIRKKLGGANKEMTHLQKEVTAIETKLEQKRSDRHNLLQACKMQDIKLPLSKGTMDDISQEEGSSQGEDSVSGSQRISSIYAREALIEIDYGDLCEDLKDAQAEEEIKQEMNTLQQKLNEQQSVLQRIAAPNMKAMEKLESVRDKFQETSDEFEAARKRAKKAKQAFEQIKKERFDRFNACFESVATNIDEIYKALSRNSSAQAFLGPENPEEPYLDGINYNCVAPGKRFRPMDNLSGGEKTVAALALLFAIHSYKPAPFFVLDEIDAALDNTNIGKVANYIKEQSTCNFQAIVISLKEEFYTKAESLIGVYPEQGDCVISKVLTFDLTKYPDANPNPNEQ

[13] = target: Non-receptor tyrosine-protein kinase TYK2 (Homo sapiens, UniProt P29597)
Also: in the data inactive means no Kd found up to 30 µM.

Chain of Interleukin-1 receptor-associated kinase 1 (P51617 whole entry): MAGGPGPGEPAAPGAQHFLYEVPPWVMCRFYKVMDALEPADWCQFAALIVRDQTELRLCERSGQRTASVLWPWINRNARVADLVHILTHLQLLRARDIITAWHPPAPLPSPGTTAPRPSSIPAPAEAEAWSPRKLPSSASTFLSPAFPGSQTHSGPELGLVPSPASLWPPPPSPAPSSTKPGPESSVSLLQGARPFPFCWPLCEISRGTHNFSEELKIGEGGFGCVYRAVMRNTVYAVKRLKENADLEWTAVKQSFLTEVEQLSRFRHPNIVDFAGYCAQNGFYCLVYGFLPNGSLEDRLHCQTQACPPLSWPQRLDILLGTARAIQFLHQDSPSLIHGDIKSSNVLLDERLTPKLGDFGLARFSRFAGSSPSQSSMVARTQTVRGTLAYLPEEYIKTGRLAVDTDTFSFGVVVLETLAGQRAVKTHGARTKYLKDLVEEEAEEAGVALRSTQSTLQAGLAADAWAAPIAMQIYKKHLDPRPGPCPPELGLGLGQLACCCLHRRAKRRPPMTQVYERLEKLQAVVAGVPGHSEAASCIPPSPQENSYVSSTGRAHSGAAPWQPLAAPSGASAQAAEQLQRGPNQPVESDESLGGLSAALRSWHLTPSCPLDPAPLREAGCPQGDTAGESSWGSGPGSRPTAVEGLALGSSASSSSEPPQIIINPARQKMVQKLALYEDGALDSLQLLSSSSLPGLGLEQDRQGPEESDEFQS
Chain of Mitogen-activated protein kinase 9 (P45984 whole entry, canonical isoform): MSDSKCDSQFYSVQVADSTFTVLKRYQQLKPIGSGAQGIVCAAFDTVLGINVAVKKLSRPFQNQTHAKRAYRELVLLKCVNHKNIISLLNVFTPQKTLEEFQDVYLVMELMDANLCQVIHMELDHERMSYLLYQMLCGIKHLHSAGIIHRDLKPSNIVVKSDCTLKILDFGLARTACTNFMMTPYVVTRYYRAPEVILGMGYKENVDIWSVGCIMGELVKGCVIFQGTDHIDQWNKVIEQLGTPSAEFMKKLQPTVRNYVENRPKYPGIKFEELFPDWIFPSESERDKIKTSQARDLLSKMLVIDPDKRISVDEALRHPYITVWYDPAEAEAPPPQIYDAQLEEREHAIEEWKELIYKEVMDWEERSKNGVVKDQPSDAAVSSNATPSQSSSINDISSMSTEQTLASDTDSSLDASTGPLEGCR
Chain of Ras-related protein Rab-6A (P20340 whole entry): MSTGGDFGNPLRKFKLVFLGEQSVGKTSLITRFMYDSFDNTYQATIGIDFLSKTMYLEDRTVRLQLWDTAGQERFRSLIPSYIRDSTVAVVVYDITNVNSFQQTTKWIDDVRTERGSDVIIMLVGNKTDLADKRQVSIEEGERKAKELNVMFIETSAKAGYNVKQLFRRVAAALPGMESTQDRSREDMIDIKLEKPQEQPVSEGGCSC
Chain of Myosin light chain kinase, smooth muscle (Q15746 whole entry): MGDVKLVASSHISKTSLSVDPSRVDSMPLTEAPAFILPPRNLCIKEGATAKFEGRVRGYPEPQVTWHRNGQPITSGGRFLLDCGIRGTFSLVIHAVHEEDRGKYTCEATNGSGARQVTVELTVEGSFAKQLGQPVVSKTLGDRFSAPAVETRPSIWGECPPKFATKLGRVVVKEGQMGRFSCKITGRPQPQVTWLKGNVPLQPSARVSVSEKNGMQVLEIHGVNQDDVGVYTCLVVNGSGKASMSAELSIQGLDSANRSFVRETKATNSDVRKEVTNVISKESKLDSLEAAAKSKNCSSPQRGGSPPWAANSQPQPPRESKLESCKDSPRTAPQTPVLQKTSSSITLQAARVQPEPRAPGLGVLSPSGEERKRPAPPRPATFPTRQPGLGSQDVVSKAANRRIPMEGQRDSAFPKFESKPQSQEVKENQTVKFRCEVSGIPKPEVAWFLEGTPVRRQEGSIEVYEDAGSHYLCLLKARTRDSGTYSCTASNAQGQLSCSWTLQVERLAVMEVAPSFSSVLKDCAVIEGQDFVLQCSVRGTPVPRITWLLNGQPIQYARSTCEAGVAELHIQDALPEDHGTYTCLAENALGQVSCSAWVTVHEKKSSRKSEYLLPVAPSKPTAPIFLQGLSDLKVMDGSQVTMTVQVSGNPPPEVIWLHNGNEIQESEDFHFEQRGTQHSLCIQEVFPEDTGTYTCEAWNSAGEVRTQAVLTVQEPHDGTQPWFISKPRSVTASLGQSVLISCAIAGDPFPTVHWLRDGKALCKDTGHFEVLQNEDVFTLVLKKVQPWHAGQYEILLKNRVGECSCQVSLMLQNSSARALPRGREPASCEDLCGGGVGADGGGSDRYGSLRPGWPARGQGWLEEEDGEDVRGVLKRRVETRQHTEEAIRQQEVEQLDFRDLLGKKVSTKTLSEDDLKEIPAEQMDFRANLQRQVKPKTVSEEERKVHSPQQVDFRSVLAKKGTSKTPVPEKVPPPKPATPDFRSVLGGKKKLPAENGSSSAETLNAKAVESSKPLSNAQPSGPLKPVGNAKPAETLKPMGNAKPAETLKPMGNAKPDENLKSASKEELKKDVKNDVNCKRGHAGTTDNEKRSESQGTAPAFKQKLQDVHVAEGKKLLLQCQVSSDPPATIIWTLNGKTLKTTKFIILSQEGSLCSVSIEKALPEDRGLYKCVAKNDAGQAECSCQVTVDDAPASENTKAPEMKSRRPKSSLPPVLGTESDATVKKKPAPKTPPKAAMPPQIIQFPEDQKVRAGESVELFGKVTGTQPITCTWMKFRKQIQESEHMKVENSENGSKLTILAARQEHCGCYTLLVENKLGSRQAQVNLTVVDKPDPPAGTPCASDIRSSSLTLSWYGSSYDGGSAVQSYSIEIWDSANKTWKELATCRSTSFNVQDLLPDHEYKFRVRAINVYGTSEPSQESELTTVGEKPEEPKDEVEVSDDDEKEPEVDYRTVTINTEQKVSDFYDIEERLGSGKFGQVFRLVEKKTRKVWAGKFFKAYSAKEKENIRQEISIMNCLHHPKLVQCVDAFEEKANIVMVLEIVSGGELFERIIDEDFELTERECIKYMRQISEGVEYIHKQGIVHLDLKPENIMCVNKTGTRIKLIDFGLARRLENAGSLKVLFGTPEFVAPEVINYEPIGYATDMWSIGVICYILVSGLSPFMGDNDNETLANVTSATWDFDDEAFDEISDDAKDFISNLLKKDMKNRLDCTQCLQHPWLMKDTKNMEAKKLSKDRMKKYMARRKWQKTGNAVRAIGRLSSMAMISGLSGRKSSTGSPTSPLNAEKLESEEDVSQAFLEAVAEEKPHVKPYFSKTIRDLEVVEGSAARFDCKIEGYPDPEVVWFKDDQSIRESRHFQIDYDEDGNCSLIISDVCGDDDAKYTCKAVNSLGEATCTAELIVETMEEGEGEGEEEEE
Chain of Glycogen synthase kinase-3 beta (P49841 whole entry): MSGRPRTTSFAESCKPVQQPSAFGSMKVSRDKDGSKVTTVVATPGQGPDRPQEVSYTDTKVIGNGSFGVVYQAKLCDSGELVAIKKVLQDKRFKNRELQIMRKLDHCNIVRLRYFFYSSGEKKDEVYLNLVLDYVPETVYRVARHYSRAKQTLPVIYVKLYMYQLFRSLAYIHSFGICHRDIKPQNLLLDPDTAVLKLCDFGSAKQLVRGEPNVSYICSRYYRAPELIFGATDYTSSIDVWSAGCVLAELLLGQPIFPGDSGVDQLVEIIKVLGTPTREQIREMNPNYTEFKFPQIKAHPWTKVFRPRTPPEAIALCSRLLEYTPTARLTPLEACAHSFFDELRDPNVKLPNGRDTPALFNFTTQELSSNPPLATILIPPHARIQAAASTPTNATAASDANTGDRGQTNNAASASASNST
Chain of ATP-dependent RNA helicase DDX3X (O00571 whole entry): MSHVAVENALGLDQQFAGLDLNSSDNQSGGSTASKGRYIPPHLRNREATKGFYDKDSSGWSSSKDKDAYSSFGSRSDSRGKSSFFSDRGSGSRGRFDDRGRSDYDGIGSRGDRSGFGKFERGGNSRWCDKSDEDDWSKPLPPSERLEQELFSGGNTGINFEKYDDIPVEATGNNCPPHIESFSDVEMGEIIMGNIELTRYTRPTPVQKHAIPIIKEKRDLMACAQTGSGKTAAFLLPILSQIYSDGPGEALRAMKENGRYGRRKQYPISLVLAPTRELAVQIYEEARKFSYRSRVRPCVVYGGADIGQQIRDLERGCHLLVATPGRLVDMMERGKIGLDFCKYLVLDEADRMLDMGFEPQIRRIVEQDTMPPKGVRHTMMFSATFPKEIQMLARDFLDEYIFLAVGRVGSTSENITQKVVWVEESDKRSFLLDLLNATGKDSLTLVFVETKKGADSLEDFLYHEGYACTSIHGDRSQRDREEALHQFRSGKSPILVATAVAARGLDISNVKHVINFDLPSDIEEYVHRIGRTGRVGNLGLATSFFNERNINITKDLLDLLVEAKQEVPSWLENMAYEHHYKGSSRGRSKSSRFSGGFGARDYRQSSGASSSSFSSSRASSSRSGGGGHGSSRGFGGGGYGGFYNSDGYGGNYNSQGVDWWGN
Chain of Casein kinase I isoform delta (P48730 whole entry, canonical isoform): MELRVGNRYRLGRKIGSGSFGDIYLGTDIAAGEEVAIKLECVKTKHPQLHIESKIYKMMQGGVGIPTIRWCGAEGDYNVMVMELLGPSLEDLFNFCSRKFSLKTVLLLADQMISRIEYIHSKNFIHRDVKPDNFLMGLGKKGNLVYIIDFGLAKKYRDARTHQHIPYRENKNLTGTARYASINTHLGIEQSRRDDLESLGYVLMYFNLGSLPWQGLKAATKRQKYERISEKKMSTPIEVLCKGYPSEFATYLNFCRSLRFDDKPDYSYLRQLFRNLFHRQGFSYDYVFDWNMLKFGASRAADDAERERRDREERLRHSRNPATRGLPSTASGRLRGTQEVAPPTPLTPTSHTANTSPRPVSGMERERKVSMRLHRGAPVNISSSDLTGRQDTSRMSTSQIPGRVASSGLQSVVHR

| SMILES | Kd [1] | Kd [2] | Kd [3] | Kd [4] | Kd [5] | Kd [6] | Kd [7] | Kd [8] | Kd [9] | Kd [10] | Kd [11] | Kd [12] | Kd [13] |
| --- | --- | --- | --- | --- | --- | --- | --- | --- | --- | --- | --- | --- | --- |
| Cc1cc([C@@H](C)Nc2ccccc2C(=O)O)c2nc(N3CCOCC3)cc(=O)n2c1 [AZD-6482] | > 30 µM (inactive) | > 30 µM (inactive) | > 30 µM (inactive) | > 30 µM (inactive) | > 30 µM (inactive) | > 30 µM (inactive) | > 30 µM (inactive) | > 30 µM (inactive) | > 30 µM (inactive) | > 30 µM (inactive) | > 30 µM (inactive) | > 30 µM (inactive) | > 30 µM (inactive) |
| CCS(=O)(=O)N1CC(CC#N)(n2cc(-c3ncnc4[nH]ccc34)cn2)C1 [BARICITINIB] | > 30 µM (inactive) | > 30 µM (inactive) | > 30 µM (inactive) | > 30 µM (inactive) | > 30 µM (inactive) | > 30 µM (inactive) | > 30 µM (inactive) | > 30 µM (inactive) | > 30 µM (inactive) | > 30 µM (inactive) | > 30 µM (inactive) | > 30 µM (inactive) | > 30 µM (inactive) |
| O=C(Nc1ccc(-c2ccnc(Nc3ccc(N4CCOCC4)cc3)n2)cc1)C1CCCN1 (stereo unspecified) [XL-019] | > 30 µM (inactive) | > 30 µM (inactive) | > 30 µM (inactive) | > 30 µM (inactive) | > 30 µM (inactive) | > 30 µM (inactive) | > 30 µM (inactive) | > 30 µM (inactive) | > 30 µM (inactive) | > 30 µM (inactive) | 0.3 µM (active) | > 30 µM (inactive) | > 30 µM (inactive) |
| CCn1c(=O)c(-c2cc[nH]n2)cc2c(C)nc(N)nc21 [VOXTALISIB] | > 30 µM (inactive) | > 30 µM (inactive) | > 30 µM (inactive) | > 30 µM (inactive) | > 30 µM (inactive) | > 30 µM (inactive) | > 30 µM (inactive) | > 30 µM (inactive) | > 30 µM (inactive) | > 30 µM (inactive) | > 30 µM (inactive) | > 30 µM (inactive) | > 30 µM (inactive) |
| CCN1CCN(Cc2ccc(-c3cc4c(N[C@H](C)c5ccccc5)ncnc4[nH]3)cc2)CC1 [AEE-788] | > 30 µM (inactive) | > 30 µM (inactive) | > 30 µM (inactive) | > 30 µM (inactive) | > 30 µM (inactive) | > 30 µM (inactive) | > 30 µM (inactive) | > 30 µM (inactive) | > 30 µM (inactive) | > 30 µM (inactive) | 41.8 µM (active) | > 30 µM (inactive) | > 30 µM (inactive) |
| CN1CC[C@@H](c2c(O)cc(O)c3c(=O)cc(-c4ccccc4Cl)oc23)[C@@H]1CO | > 30 µM (inactive) | > 30 µM (inactive) | 2.72 µM (active) | > 30 µM (inactive) | > 30 µM (inactive) | > 30 µM (inactive) | > 30 µM (inactive) | > 30 µM (inactive) | > 30 µM (inactive) | > 30 µM (inactive) | > 30 µM (inactive) | > 30 µM (inactive) | > 30 µM (inactive) |
| CN1CCC(CNc2ccc3ncc(-c4cccc(OC(F)(F)F)c4)n3n2)CC1 [SGI-1776] | > 30 µM (inactive) | > 30 µM (inactive) | > 30 µM (inactive) | > 30 µM (inactive) | > 30 µM (inactive) | > 30 µM (inactive) | > 30 µM (inactive) | > 30 µM (inactive) | > 30 µM (inactive) | > 30 µM (inactive) | 6.12 µM (active) | > 30 µM (inactive) | > 30 µM (inactive) |

Next, values leading:

| Kd [1] | Kd [2] | Kd [3] | Kd [4] | Kd [5] | Kd [6] | Kd [7] | Kd [8] | Kd [9] | Kd [10] | Kd [11] | Kd [12] | Kd [13] | SMILES |
| --- | --- | --- | --- | --- | --- | --- | --- | --- | --- | --- | --- | --- | --- |
| > 30 µM (inactive) | > 30 µM (inactive) | > 30 µM (inactive) | > 30 µM (inactive) | > 30 µM (inactive) | > 30 µM (inactive) | > 30 µM (inactive) | > 30 µM (inactive) | > 30 µM (inactive) | > 30 µM (inactive) | > 30 µM (inactive) | > 30 µM (inactive) | > 30 µM (inactive) | CNC(=O)c1cc(Oc2ccc(NC(=O)Nc3ccc(Cl)c(C(F)(F)F)c3)c(F)c2)ccn1 [REGORAFENIB] |
| > 30 µM (inactive) | > 30 µM (inactive) | > 30 µM (inactive) | > 30 µM (inactive) | > 30 µM (inactive) | > 30 µM (inactive) | > 30 µM (inactive) | > 30 µM (inactive) | > 30 µM (inactive) | > 30 µM (inactive) | > 30 µM (inactive) | > 30 µM (inactive) | > 30 µM (inactive) | CNS(=O)(=O)Nc1nccc(Cc2c(C)c3ccc(Oc4ncccn4)cc3oc2=O)c1F [AVUTOMETINIB] |
| > 30 µM (inactive) | > 30 µM (inactive) | > 30 µM (inactive) | > 30 µM (inactive) | > 30 µM (inactive) | > 30 µM (inactive) | > 30 µM (inactive) | > 30 µM (inactive) | > 30 µM (inactive) | > 30 µM (inactive) | > 30 µM (inactive) | > 30 µM (inactive) | > 30 µM (inactive) | CCCS(=O)(=O)Nc1ccc(F)c(C(=O)c2c[nH]c3ncc(-c4ccc(Cl)cc4)cc23)c1F [VEMURAFENIB] |
| > 30 µM (inactive) | > 30 µM (inactive) | > 30 µM (inactive) | > 30 µM (inactive) | > 30 µM (inactive) | > 30 µM (inactive) | > 30 µM (inactive) | > 30 µM (inactive) | > 30 µM (inactive) | > 30 µM (inactive) | > 30 µM (inactive) | > 30 µM (inactive) | > 30 µM (inactive) | Cc1ccc(S(=O)(=O)Nc2nc3ccccc3nc2Nc2ccc3nsnc3c2)cc1 |
| > 30 µM (inactive) | > 30 µM (inactive) | > 30 µM (inactive) | > 30 µM (inactive) | > 30 µM (inactive) | > 30 µM (inactive) | > 30 µM (inactive) | > 30 µM (inactive) | > 30 µM (inactive) | > 30 µM (inactive) | > 30 µM (inactive) | > 30 µM (inactive) | > 30 µM (inactive) | CC(=O)Nc1cccc(-n2c(=O)n(C3CC3)c(=O)c3c(Nc4ccc(I)cc4F)n(C)c(=O)c(C)c32)c1 [TRAMETINIB] |
